Experimental findings from patent US20200199102A1, “COMPOUNDS THAT PARTICIPATE IN COOPERATIVE BINDING AND USES THEREOF” (Revolution Medicines, Inc., priority 2017, published 2020) are described below.

The structures appear in SMILES notation. Where a SMILES comes first, the peptide text is derived from it. [ ]: non-standard residue; d: D form. MeBmt = C/C=C/C[C@@H](C)[C@@H](O)[C@H](NC)C(=O)O; NMeY = CN[C@@H](Cc1ccc(O)cc1)C(=O)O; NMeF = CN[C@@H](Cc1ccccc1)C(=O)O; NMeT = CN[C@H](C(=O)O)[C@@H](C)O; NMeL = CN[C@@H](CC(C)C)C(=O)O; NMeV = CN[C@H](C(=O)O)C(C)C; Abu = CC[C@H](N)C(=O)O; Sar = CNCC(=O)O

This test has as its target T1, Cyclophilin A (Homo sapiens, UniProt P62937).
T1 construct: made in house
As to the kind of experiment: AlphaLISA inhibition of binding of biotinylated Cyclosporin A to FLAG tagged Cyclophilin A. The following applies: for % signal: AlphaLISA signal; for % signal / % inhibition of CsA binding to Cyclophilin A: test concentration not given; for IC50: read-out: IC50 value of CsA binding to Cyclophilin A. An excerpt: The binding of compounds of the invention to Cyclophilin A can be determined using the following protocol.
This protocol utilizes Perkin Elmers AlphaLISA technology platform to detect cyclosporine analogues by measuring the inhibition of binding of biotinylated Cyclosporin A to FLAG tagged Cyclophilin A.
10×TBST Buffer (Boston BioProducts IBB-181), Biotinylated Cyclosporin A (in-house), FLAG tagged Cyclophilin A (in-house); anti-FLAG Donor beads (PerkinElmer AS103) and Streptavidin Acceptor beads (PerkinElmer AL125); Compounds in DMSO (in-house), Cyclosporin A (LC Labs Cat #C-6000).
Add 20 uL of 6 nM Biotinylated CsA working stock to each well of the 96-well plate. Add 1 uL of test compound (100% DMSO) to each well of the plate using the Janus MTD head and P20 tips (except control wells). Add 1 uL of DMSO to negative control wells and 1 uL of 500 uM Cyclosporin A solution to positive control wells. In the dark, add 20 uL of combined Donor/Acceptor beads to each well. Incubate in the dark for 30 minutes at room temperature. In the dark, add 10 uL of 25 nM Flag tagged CypA working stock to each well. Incubate in the dark for 60 minutes at room temperature. Protect plate from light until reading on Biotek Synergy2 Plate Reader; Alphalisa 96-well protocol (680 excitation/615 emission).
(In general: Alpha assays give light when donor and acceptor beads are brought close together.)

T1 sequence (P62937 whole entry, species assumed): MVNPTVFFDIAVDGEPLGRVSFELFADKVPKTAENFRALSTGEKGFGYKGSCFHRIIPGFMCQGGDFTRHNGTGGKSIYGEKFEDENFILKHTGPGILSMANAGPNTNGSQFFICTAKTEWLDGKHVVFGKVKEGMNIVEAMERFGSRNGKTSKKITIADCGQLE

The term IC50 denotes the point on the concentration scale where inhibition reaches its midpoint. Turning to `C/C=C/C[C@@H](C)[C@@H](O)[C@H]1C(=O)N[C@@H](CC)C(=O)N(C)CC(=O)N(C)[C@@H](Cc2ccccc2)C(=O)N[C@@H](C(C)C)C(=O)N(C)[C@@H](CC(C)C)C(=O)N[C@@H](CC(C)C)C(=O)N[C@H](C)C(=O)N(C)[C@@H](CC(C)C)C(=O)N(C)[C@@H](CC(C)C)C(=O)N(C)[C@@H](C(C)C)C(=O)N1C` [Compound C48] (cyclo([MeBmt][Abu][Sar][NMeF]V[NMeL]L[dA][NMeL][NMeL][NMeV])), the “% signal” value is 15.72%, the IC50 is < 2 µM and the “% inhibition of CsA binding to Cyclophilin A” value (“% inhibition of CsA binding” for short) is recorded as 84.28%.

Take `C/C=C/C[C@@H](C)[C@@H](O)[C@H]1C(=O)N[C@@H](CC)C(=O)N(C)CC(=O)N(C)CC(=O)N[C@@H](C(C)C)C(=O)N(C)[C@@H](CC(C)C)C(=O)N[C@@H](CC(C)C)C(=O)N[C@H](C)C(=O)N(C)[C@@H](CC(C)C)C(=O)N(C)[C@@H](CC(C)C)C(=O)N(C)[C@@H](C(C)C)C(=O)N1C` [Compound C49] (cyclo([MeBmt][Abu][Sar][Sar]V[NMeL]L[dA][NMeL][NMeL][NMeV])): the “% signal” value worked out at 19.41%, the IC50 was < 2 µM and the “% inhibition of CsA binding” value stood at 80.59%.

`C/C=C/C[C@@H](C)[C@@H](O)[C@H]1C(=O)N[C@@H](CC)C(=O)N(C)CC(=O)N(C)[C@@H](CC(C)C)C(=O)N[C@@H](C(C)C)C(=O)N(C)[C@@H](CC(C)C)C(=O)N[C@@H](CC(C)C)C(=O)N[C@H](C)C(=O)N(C)[C@@H](CC(C)C)C(=O)N(C)[C@@H](CC(C)C)C(=O)N(C)[C@@H](C(C)C)C(=O)N1C` [Compound C50]: the “% signal” value was 6.06%, the IC50 is < 2 µM and the “% inhibition of CsA binding” value worked out at 93.94%.

With `C/C=C/C[C@@H](C)[C@@H](O)[C@H]1C(=O)N[C@@H](CC)C(=O)N(C)CC(=O)N(C)[C@@H]([C@@H](C)O)C(=O)N[C@@H](C(C)C)C(=O)N(C)[C@@H](CC(C)C)C(=O)N[C@@H](CC(C)C)C(=O)N[C@H](C)C(=O)N(C)[C@@H](CC(C)C)C(=O)N(C)[C@@H](CC(C)C)C(=O)N(C)[C@@H](C(C)C)C(=O)N1C` [Compound C51] (cyclo([MeBmt][Abu][Sar][NMeT]V[NMeL]L[dA][NMeL][NMeL][NMeV])), the “% signal” value is reported as 3.38%, the IC50 was < 2 µM and the “% inhibition of CsA binding” value was determined as 96.62%.

As to `C/C=C/C[C@@H](C)[C@@H](O)[C@H]1C(=O)N[C@@H](CC)C(=O)N(C)CC(=O)N(C)[C@@H](Cc2ccc(O)cc2)C(=O)N[C@@H](C(C)C)C(=O)N(C)[C@@H](CC(C)C)C(=O)N[C@@H](CC(C)C)C(=O)N[C@H](C)C(=O)N(C)[C@@H](CC(C)C)C(=O)N(C)[C@@H](CC(C)C)C(=O)N(C)[C@@H](C(C)C)C(=O)N1C` [Compound C52] (cyclo([MeBmt][Abu][Sar][NMeY]V[NMeL]L[dA][NMeL][NMeL][NMeV])), the “% signal” value amounted to 7.40%, the IC50 was < 2 µM and the “% inhibition of CsA binding” value is given as 92.60%.

As to `C/C=C/C[C@@H](C)[C@@H](O)[C@H]1C(=O)N[C@@H](CC)C(=O)N(C)CC(=O)N(C)[C@@H](C(C)C)C(=O)N[C@@H](C(C)C)C(=O)N(C)[C@@H](CC(C)C)C(=O)N[C@@H](CC(C)C)C(=O)N[C@H](C)C(=O)N(C)[C@@H](CC(C)C)C(=O)N(C)[C@@H](CC(C)C)C(=O)N(C)[C@@H](C(C)C)C(=O)N1C` [Compound C53] (cyclo([MeBmt][Abu][Sar][NMeV]V[NMeL]L[dA][NMeL][NMeL][NMeV])), the “% signal” value is reported as −0.01%, the IC50 was < 2 µM and the “% inhibition of CsA binding” value was 100.01%.
